From the NIST ThermoML archive (doi:10.1021/je400659p)
± gives the expanded uncertainty stated by the source.

Experiments:
[1] = xn = mol fraction of the nth substance listed; conditions: 101 kPa, Liquid, Vibrating tube method
[2] = refractive index (Na D-line) (dimensionless); xn = mol fraction of the nth substance listed; conditions: 101 kPa, Liquid, Standard Abbe refractometry

## CCn1cc[n+](C)c1.F[B-](F)(F)F [1-ethyl-3-methylimidazolium tetrafluoroborate] + C1COCCO1
[1]; 293.15 K, x1 = 0.3292
  mass density: 1171.62 ± 0.6 kg/m3
[1]; 293.15 K, x1 = 0.4547
  mass density: 1203.47 ± 0.73 kg/m3
[1]; 293.15 K, x1 = 0.4923
  mass density: 1211.84 ± 0.77 kg/m3
[1]; 293.15 K, x1 = 0.6409
  mass density: 1240.74 ± 0.96 kg/m3
[1]; 293.15 K, x1 = 0.6838
  mass density: 1246.89 ± 1 kg/m3
[1]; 293.15 K, x1 = 0.7851
  mass density: 1263.5 ± 1.2 kg/m3
[1]; 293.15 K, x1 = 0.8336
  mass density: 1270.18 ± 1.2 kg/m3
[1]; 293.15 K, x1 = 1
  mass density: 1290.63 ± 1.5 kg/m3
[1]; 298.15 K, x1 = 0.3292
  mass density: 1167.26 ± 0.6 kg/m3
[1]; 298.15 K, x1 = 0.4547
  mass density: 1199.31 ± 0.72 kg/m3
[1]; 298.15 K, x1 = 0.4923
  mass density: 1207.73 ± 0.76 kg/m3
[1]; 298.15 K, x1 = 0.6409
  mass density: 1236.77 ± 0.95 kg/m3
[1]; 298.15 K, x1 = 0.6838
  mass density: 1242.94 ± 1 kg/m3
[1]; 298.15 K, x1 = 0.7851
  mass density: 1259.61 ± 1.1 kg/m3
[1]; 298.15 K, x1 = 0.8336
  mass density: 1266.32 ± 1.2 kg/m3
[1]; 298.15 K, x1 = 1
  mass density: 1286.82 ± 1.5 kg/m3
[1]; 303.15 K, x1 = 0.3292
  mass density: 1163 ± 0.59 kg/m3
[1]; 303.15 K, x1 = 0.4547
  mass density: 1195.16 ± 0.72 kg/m3
[1]; 303.15 K, x1 = 0.4923
  mass density: 1203.63 ± 0.76 kg/m3
[1]; 303.15 K, x1 = 0.6409
  mass density: 1232.79 ± 0.94 kg/m3
[1]; 303.15 K, x1 = 0.6838
  mass density: 1238.89 ± 1 kg/m3
[1]; 303.15 K, x1 = 0.7851
  mass density: 1255.72 ± 1.1 kg/m3
[1]; 303.15 K, x1 = 0.8336
  mass density: 1262.45 ± 1.2 kg/m3
[1]; 303.15 K, x1 = 1
  mass density: 1283.02 ± 1.5 kg/m3
[1]; 313.15 K, x1 = 0.3292
  mass density: 1154.24 ± 0.58 kg/m3
[1]; 313.15 K, x1 = 0.4547
  mass density: 1186.92 ± 0.71 kg/m3
[1]; 313.15 K, x1 = 0.4923
  mass density: 1195.48 ± 0.75 kg/m3
[1]; 313.15 K, x1 = 0.6409
  mass density: 1224.92 ± 0.93 kg/m3
[1]; 313.15 K, x1 = 0.6838
  mass density: 1231.17 ± 0.98 kg/m3
[1]; 313.15 K, x1 = 0.7851
  mass density: 1248.01 ± 1.1 kg/m3
[1]; 313.15 K, x1 = 0.8336
  mass density: 1254.79 ± 1.2 kg/m3
[1]; 313.15 K, x1 = 1
  mass density: 1275.45 ± 1.4 kg/m3
[1]; 323.15 K, x1 = 0.3292
  mass density: 1145.14 ± 0.57 kg/m3
[1]; 323.15 K, x1 = 0.4547
  mass density: 1178.43 ± 0.69 kg/m3
[1]; 323.15 K, x1 = 0.4923
  mass density: 1187.38 ± 0.74 kg/m3
[1]; 323.15 K, x1 = 0.6409
  mass density: 1217.1 ± 0.92 kg/m3
[1]; 323.15 K, x1 = 0.6838
  mass density: 1223.4 ± 0.97 kg/m3
[1]; 323.15 K, x1 = 0.7851
  mass density: 1240.36 ± 1.1 kg/m3
[1]; 323.15 K, x1 = 0.8336
  mass density: 1247.18 ± 1.2 kg/m3
[1]; 323.15 K, x1 = 1
  mass density: 1267.97 ± 1.4 kg/m3
[1]; 333.15 K, x1 = 0.3292
  mass density: 1136.98 ± 0.56 kg/m3
[1]; 333.15 K, x1 = 0.4547
  mass density: 1170.56 ± 0.68 kg/m3
[1]; 333.15 K, x1 = 0.4923
  mass density: 1179.33 ± 0.72 kg/m3
[1]; 333.15 K, x1 = 0.6409
  mass density: 1209.33 ± 0.9 kg/m3
[1]; 333.15 K, x1 = 0.6838
  mass density: 1215.68 ± 0.96 kg/m3
[1]; 333.15 K, x1 = 0.7851
  mass density: 1232.77 ± 1.1 kg/m3
[1]; 333.15 K, x1 = 0.8336
  mass density: 1239.64 ± 1.2 kg/m3
[1]; 333.15 K, x1 = 1
  mass density: 1260.55 ± 1.4 kg/m3
[1]; 343.15 K, x1 = 0.3292
  mass density: 1128.37 ± 0.56 kg/m3
[1]; 343.15 K, x1 = 0.4547
  mass density: 1162.44 ± 0.67 kg/m3
[1]; 343.15 K, x1 = 0.4923
  mass density: 1171.31 ± 0.71 kg/m3
[1]; 343.15 K, x1 = 0.6409
  mass density: 1201.62 ± 0.89 kg/m3
[1]; 343.15 K, x1 = 0.6838
  mass density: 1208.02 ± 0.94 kg/m3
[1]; 343.15 K, x1 = 0.7851
  mass density: 1225.24 ± 1.1 kg/m3
[1]; 343.15 K, x1 = 0.8336
  mass density: 1232.15 ± 1.1 kg/m3
[1]; 343.15 K, x1 = 1
  mass density: 1253.18 ± 1.4 kg/m3
[1]; 353.15 K, x1 = 0.3292
  mass density: 1120.41 ± 0.55 kg/m3
[1]; 353.15 K, x1 = 0.4547
  mass density: 1154.35 ± 0.66 kg/m3
[1]; 353.15 K, x1 = 0.4923
  mass density: 1163.32 ± 0.7 kg/m3
[1]; 353.15 K, x1 = 0.6409
  mass density: 1193.95 ± 0.88 kg/m3
[1]; 353.15 K, x1 = 0.6838
  mass density: 1200.41 ± 0.93 kg/m3
[1]; 353.15 K, x1 = 0.7851
  mass density: 1217.75 ± 1.1 kg/m3
[1]; 353.15 K, x1 = 0.8336
  mass density: 1225.41 ± 1.1 kg/m3
[1]; 353.15 K, x1 = 1
  mass density: 1245.87 ± 1.4 kg/m3
[2]; 298.15 K, x1 = 0.3292
  refractive index: 1.4214 ± 0.0004
[2]; 298.15 K, x1 = 0.4547
  refractive index: 1.4197 ± 0.0005
[2]; 298.15 K, x1 = 0.4923
  refractive index: 1.4191 ± 0.0005
[2]; 298.15 K, x1 = 0.6409
  refractive index: 1.4165 ± 0.0005
[2]; 298.15 K, x1 = 0.6838
  refractive index: 1.4157 ± 0.0005
[2]; 298.15 K, x1 = 0.7851
  refractive index: 1.414 ± 0.0005
[2]; 298.15 K, x1 = 0.8336
  refractive index: 1.4132 ± 0.0005
[2]; 298.15 K, x1 = 1
  refractive index: 1.4111 ± 0.0005
[2]; 303.15 K, x1 = 0.3292
  refractive index: 1.4195 ± 0.0004
[2]; 303.15 K, x1 = 0.4547
  refractive index: 1.4181 ± 0.0005
[2]; 303.15 K, x1 = 0.4923
  refractive index: 1.4176 ± 0.0005
[2]; 303.15 K, x1 = 0.6409
  refractive index: 1.415 ± 0.0005
[2]; 303.15 K, x1 = 0.6838
  refractive index: 1.4143 ± 0.0005
[2]; 303.15 K, x1 = 0.7851
  refractive index: 1.4125 ± 0.0005
[2]; 303.15 K, x1 = 0.8336
  refractive index: 1.4118 ± 0.0005
[2]; 303.15 K, x1 = 1
  refractive index: 1.41 ± 0.0005
[2]; 313.15 K, x1 = 0.3292
  refractive index: 1.4163 ± 0.0004
[2]; 313.15 K, x1 = 0.4547
  refractive index: 1.4154 ± 0.0005
[2]; 313.15 K, x1 = 0.4923
  refractive index: 1.4149 ± 0.0005
[2]; 313.15 K, x1 = 0.6409
  refractive index: 1.4126 ± 0.0005
[2]; 313.15 K, x1 = 0.6838
  refractive index: 1.4118 ± 0.0005
[2]; 313.15 K, x1 = 0.7851
  refractive index: 1.41 ± 0.0005
[2]; 313.15 K, x1 = 0.8336
  refractive index: 1.4092 ± 0.0005
[2]; 313.15 K, x1 = 1
  refractive index: 1.4073 ± 0.0005
[2]; 323.15 K, x1 = 0.3292
  refractive index: 1.4129 ± 0.0004
[2]; 323.15 K, x1 = 0.4547
  refractive index: 1.4123 ± 0.0005
[2]; 323.15 K, x1 = 0.4923
  refractive index: 1.4119 ± 0.0005
[2]; 323.15 K, x1 = 0.6409
  refractive index: 1.4097 ± 0.0005
[2]; 323.15 K, x1 = 0.6838
  refractive index: 1.409 ± 0.0005
[2]; 323.15 K, x1 = 0.7851
  refractive index: 1.4074 ± 0.0005
[2]; 323.15 K, x1 = 0.8336
  refractive index: 1.4067 ± 0.0005
[2]; 323.15 K, x1 = 1
  refractive index: 1.4051 ± 0.0005
